# According to paper PMC6526958 (Journal of medicinal chemistry, 2019):
# Entries after “also recorded” stand apart in the source; their conditions may differ.
# Legend:
# [1] = biological target: T1, recombinant soluble rat CD73 (Rattus norvegicus, UniProt P21588); experiment: radiometric CD73 assay with [2,8-3H]AMP, recombinant soluble rat CD73; format: biochemical; settings: for fold less active than AOPCP: rat CD73 Ki relative to AOPCP
# T1 sequence (P21588 29-551 limits assumed): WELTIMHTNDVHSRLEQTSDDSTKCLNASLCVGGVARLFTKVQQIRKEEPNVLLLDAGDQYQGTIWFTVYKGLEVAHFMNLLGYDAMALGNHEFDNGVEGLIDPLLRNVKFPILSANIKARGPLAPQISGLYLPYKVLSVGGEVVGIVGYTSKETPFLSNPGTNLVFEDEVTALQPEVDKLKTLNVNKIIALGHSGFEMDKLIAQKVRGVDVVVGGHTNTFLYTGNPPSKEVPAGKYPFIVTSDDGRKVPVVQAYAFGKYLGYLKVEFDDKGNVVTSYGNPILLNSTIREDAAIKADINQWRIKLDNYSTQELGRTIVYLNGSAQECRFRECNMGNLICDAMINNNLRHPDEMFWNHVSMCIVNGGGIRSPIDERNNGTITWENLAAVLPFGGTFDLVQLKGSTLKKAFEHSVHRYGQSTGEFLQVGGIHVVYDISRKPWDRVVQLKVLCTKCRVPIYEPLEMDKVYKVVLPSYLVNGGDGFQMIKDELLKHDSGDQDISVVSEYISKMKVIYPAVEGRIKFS
# human P2Y6 receptor = human P2Y6 receptor (Homo sapiens, UniProt Q15077); format: cell-based; settings: 9h up to 3.0 µM
# human P2Y14 receptor = biological target: T2, human P2Y14 receptor (Homo sapiens, UniProt Q15391); experiment: fluorescent antagonist binding competition; settings: 9h up to 3.0 µM
# T2 sequence (Q15391 1-338): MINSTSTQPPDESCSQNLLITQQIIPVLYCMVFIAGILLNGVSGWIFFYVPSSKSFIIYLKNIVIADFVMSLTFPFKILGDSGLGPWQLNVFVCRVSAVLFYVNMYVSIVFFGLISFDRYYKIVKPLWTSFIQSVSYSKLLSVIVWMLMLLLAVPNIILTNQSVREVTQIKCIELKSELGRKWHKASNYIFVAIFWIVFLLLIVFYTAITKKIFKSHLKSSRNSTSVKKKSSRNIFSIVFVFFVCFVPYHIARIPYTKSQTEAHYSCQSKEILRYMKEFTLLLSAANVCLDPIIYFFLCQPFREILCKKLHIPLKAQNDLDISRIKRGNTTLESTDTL
# [2] = stability in aqueous solution; format: physicochemical; settings: room temperature
# [3] = system: recombinant soluble human CD73; experiment: radiometric CD73 assay with [2,8-3H]AMP, recombinant soluble human CD73; format: biochemical; settings: human versus rat CD73
# eN/CD73 in human tonsils = biological target: T3, eN/CD73 in human tonsils (Homo sapiens, UniProt P21589); experiment: in situ ecto-5′-nucleotidase; format: biochemical; settings: human tonsil cryosections
# T3 sequence (P21589 27-574): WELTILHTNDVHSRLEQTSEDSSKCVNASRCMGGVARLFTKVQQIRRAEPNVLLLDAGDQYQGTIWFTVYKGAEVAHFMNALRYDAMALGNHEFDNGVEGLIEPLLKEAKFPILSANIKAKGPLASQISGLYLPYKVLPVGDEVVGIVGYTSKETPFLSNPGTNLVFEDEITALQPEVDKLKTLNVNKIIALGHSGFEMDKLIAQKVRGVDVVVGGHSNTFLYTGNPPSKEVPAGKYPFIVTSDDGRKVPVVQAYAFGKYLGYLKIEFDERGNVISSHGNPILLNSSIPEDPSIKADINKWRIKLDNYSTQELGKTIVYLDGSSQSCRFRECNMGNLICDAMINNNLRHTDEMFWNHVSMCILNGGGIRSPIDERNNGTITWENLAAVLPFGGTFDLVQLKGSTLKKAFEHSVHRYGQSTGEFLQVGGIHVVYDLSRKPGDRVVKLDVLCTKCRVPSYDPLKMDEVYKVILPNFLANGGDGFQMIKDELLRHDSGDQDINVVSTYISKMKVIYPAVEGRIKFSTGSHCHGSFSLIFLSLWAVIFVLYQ
# CD73 = CD73 enzyme inhibition assay, control for the triethylammonium salt form; format: biochemical; settings: 500 µM
# [4] = biological target: T4, membrane-bound CD73 (MDA-MB-231 membrane preparation) (Homo sapiens, UniProt P21589); experiment: radiometric CD73 assay, membrane preparations of MDA-MB-231 cells; format: biochemical
# T4 sequence (P21589 27-574): T3 sequence (P21589 27-574)
# [5] = biological target: T5, recombinant soluble human CD73 (Homo sapiens, UniProt P21589); experiment: radiometric CD73 assay with [2,8-3H]AMP, recombinant soluble human CD73; format: biochemical
# T5 sequence (P21589 28-549): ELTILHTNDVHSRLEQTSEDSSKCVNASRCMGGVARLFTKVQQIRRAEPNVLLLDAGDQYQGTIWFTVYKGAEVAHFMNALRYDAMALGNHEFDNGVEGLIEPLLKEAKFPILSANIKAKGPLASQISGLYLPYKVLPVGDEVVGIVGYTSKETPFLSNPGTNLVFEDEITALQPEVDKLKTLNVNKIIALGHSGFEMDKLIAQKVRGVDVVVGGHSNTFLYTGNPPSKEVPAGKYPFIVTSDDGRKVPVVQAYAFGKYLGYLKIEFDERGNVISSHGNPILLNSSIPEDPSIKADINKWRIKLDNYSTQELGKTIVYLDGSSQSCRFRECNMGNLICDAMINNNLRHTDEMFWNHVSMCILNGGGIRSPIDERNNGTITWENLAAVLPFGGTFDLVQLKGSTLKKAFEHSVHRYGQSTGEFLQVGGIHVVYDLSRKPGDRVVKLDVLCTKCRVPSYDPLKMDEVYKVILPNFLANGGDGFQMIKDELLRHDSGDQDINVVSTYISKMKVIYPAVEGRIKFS
# human P2Y6 receptor, sequence (Q15077 whole entry): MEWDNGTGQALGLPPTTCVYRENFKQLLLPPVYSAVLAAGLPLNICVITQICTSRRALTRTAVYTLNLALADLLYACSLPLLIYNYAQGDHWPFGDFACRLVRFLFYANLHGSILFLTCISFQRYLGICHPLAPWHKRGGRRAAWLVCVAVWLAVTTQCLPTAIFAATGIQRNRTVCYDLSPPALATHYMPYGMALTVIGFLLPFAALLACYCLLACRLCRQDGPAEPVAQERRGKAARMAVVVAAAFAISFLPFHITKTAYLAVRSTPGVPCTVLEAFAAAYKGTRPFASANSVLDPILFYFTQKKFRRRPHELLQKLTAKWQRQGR
smiles,measurement,setting,value
"Nc1ncnc2c1ccn2[C@@H]1O[C@H](COP(=O)(O)CP(=O)(O)O)[C@@H](O)[C@H]1O [2g, 7-Deazaadenosine-5′-O-[(phosphonomethyl)phosphonic acid]]",fold higher CD73 inhibitory activity compared to AOPCP,[1]; rat CD73,2 fold
CCOP(=O)(O)OP(=O)(O)OC[C@H]1O[C@@H](n2ccc(=O)[nH]c2=S)[C@H](O)[C@@H]1O [compound 12],CD73 inhibitory activity (in words),[1]; rat CD73,inactive
"Nc1ccnc2c1ncn2[C@@H]1O[C@H](COP(=O)(O)CP(=O)(O)O)[C@@H](O)[C@H]1O [2e, 1-Deazaadenosine-5′-O-[(phosphonomethyl)phosphonic acid]]",CD73 inhibitory activity (in words),[1]; rat CD73,inactive
"Nc1nccc2c1ncn2[C@@H]1O[C@H](COP(=O)(O)CP(=O)(O)O)[C@@H](O)[C@H]1O [2f, 3-Deazaadenosine-5′-O-[(phosphonomethyl)phosphonic acid]]",CD73 inhibitory activity (in words),[1]; rat CD73,inactive
"O=C(Nc1ccn([C@@H]2O[C@H](COP(=O)(O)CP(=O)(O)O)[C@@H](O)[C@H]2O)c(=O)n1)c1ccccc1 [7f, 4-Benzoylcytidine-5′-O-[(phosphonomethyl)phosphonic acid]]",potency at P2Y6 receptor (in words),human P2Y6 receptor,potencies in the micromolar range
same,potency at P2Y14 receptor (in words),human P2Y14 receptor,potencies in the micromolar range
same,stability in aqueous solution,[2],gradual decomposition when left at room temperature over several weeks in aqueous solution to UOPCP (4a) and COPCP (7a); also recorded: decomposition of compound 7f to UOPCP
same,fold more potent at human CD73 as compared to the rat enzyme,[3],2 to 3 fold
"Cn1c(=O)n([C@@H]2O[C@H](COP(=O)(O)CP(=O)(O)O)[C@@H](O)[C@H]2O)cc/c1=N/OCc1ccccc1 [9h, N^4-[O-(4-Benzyloxy)]-3-methyl-cytidine-5′-O-[(phosphonomethyl)phosphonic acid]]",potency at P2Y6 receptor (in words),human P2Y6 receptor,completely inactive
same,inhibition of CD73 catalytic (AMPase) activity in situ,"eN/CD73 in human tonsils; 1, 10 and 100 nM, 100 µM AMP","inhibited catalytic activity of CD73 in a concentration-dependent manner, in situ more potently than AOPCP"
same,reversibility of CD73 inhibition,eN/CD73 in human tonsils,highly reversible CD73 inhibitor
same,potency at P2Y14 receptor (in words),human P2Y14 receptor,completely inactive
"Nc1ncnc2c1ncn2[C@@H]1O[C@H](COP(=O)(O)O)[C@@H](O)[C@H]1O [AMP, adenosine 5′-monophosphate]",Km,"[1]; read-out: Km, rat CD73, substrate AMP",53 ± 4.1 µM
"O=c1[nH]/c(=N/OCc2ccc3ccccc3c2)ccn1[C@@H]1O[C@H](COP(=O)(O)CP(=O)(O)O)[C@@H](O)[C@H]1O [9e, N^4-[O-(Naphthalen-2-ylmethoxy)]-cytidine-5′-O-[(phosphonomethyl)phosphonic acid]]",fold more potent at human CD73 as compared to the rat enzyme,[3],2 to 3 fold
"O=c1ccn([C@@H]2O[C@H](COP(=O)(O)CCP(=O)(O)O)[C@@H](O)[C@H]2O)c(=O)[nH]1 [4w, Uridine-5′-O-[(phosphonoethyl)phosphonic acid]]",CD73 inhibitory activity (in words),[1]; rat CD73,complete loss of CD73 inhibition
"CCCn1c(=O)ccn([C@@H]2O[C@H](COP(=O)(O)CP(=O)(O)O)[C@@H](O)[C@H]2O)c1=O [4d, 3-Propyluridine-5′-O-[(phosphonomethyl)phosphonic acid]]",CD73 inhibitory activity (in words),[1]; rat CD73,inactive
"CCn1c(=O)ccn([C@@H]2O[C@H](COP(=O)(O)CP(=O)(O)O)[C@@H](O)[C@H]2O)c1=O [4c, 3-Ethyluridine-5′-O-[(phosphonomethyl)phosphonic acid]]",CD73 inhibitory activity (in words),[1]; rat CD73,inactive
CCN(CC)CC.Cl [triethylammonium chloride],reduction of CD73 enzymatic activity,CD73,no reduction of enzymatic activity was detected
"O=c1ccn([C@@H]2O[C@H](COP(=O)(O)CP(=O)(O)O)[C@@H](O)[C@H]2O)c(=O)n1Cc1ccccc1 [4e, 3-Benzyluridine-5′-O-[(phosphonomethyl)phosphonic acid]]",CD73 inhibitory activity (in words),[1]; rat CD73,inactive
"O=c1ccn([C@@]23C[C@H]2[C@H](COP(=O)(O)CP(=O)(O)O)[C@@H](O)[C@H]3O)c(=O)[nH]1 [compound 11, (S)-Methanocarbauridine-5′-O-[(phosphonomethyl)phosphonic acid]]",CD73 inhibitory activity (in words),[1]; rat CD73,inactive
"CO[C@@H]1[C@H](O)[C@@H](COP(=O)(O)CP(=O)(O)O)O[C@H]1n1cc(C)c(=O)[nH]c1=O [4h, 2′-O-Methyl-5-methyluridine-5′-O-[(phosphonomethyl)phosphonic acid]]",CD73 inhibitory activity (in words),[1]; rat CD73,inactive
"Cc1cn([C@@H]2O[C@H](COP(=O)(O)CCP(=O)(O)O)[C@@H](O)[C@H]2O)c(=O)[nH]c1=O [4x, 5-Methyluridine-5′-O-[(phosphonoethyl)phosphonic acid]]",CD73 inhibitory activity (in words),[1]; rat CD73,complete loss of CD73 inhibition
"O=c1cc(O)ccn1[C@@H]1O[C@H](COP(=O)(O)CP(=O)(O)O)[C@@H](O)[C@H]1O [compound 10, 3-Deazauridine-5′-O-[(phosphonomethyl)phosphonic acid]]",CD73 inhibitory activity (in words),[1]; rat CD73,inactive
"O=c1ccn([C@@H]2O[C@H](COP(=O)(O)CP(=O)(O)O)[C@@H](O)[C@H]2O)c(=O)[nH]1 [4a, Uridine-5′-O-[(phosphonomethyl)phosphonic acid]]",fold less active than AOPCP,[1],11 fold
"O=c1ccn([C@@H]2O[C@H](COP(=O)(O)CP(=O)(O)O)[C@@H](O)[C@H]2O)c(=S)[nH]1 [4y, 2-Thiouridine-5′-O-[(phosphonomethyl)phosphonic acid]]",CD73 inhibitory activity (in words),[1]; rat CD73,not tolerated
"Nc1ccn([C@@H]2O[C@H](COP(=O)(O)CP(=O)(O)O)[C@@H](O)[C@H]2O)c(=O)n1 [7a, Cytidine-5′-O-[(phosphonomethyl)phosphonic acid]]",fold less active than AOPCP,[1],5 fold
"O=c1[nH]c(=NOCc2ccc(C(F)(F)F)cc2)ccn1[C@@H]1O[C@H](COP(=O)(O)CP(=O)(O)O)[C@@H](O)[C@H]1O [9d, N^4-[O-(4-Trifluoromethylbenzyloxy)]-cytidine-5′-O-[(phosphonomethyl)phosphonic acid]]",Ki,[1],0.0303 ± 0.0042 µM
same,Ki,[4],0.0101 ± 0.0014 µM
same,Ki,[5],0.014 ± 0.0016 µM
same,fold more potent at human CD73 as compared to the rat enzyme,[3],2 to 3 fold
"O=c1[nH]/c(=N/OCc2ccccc2)c(F)cn1[C@@H]1O[C@H](COP(=O)(O)CP(=O)(O)O)[C@@H](O)[C@H]1O [9g, N^4-[O-(4-Benzyloxy)]-5-fluoro-cytidine-5′-O-[(phosphonomethyl)phosphonic acid]]",fold more potent at human CD73 as compared to the rat enzyme,[3],5 fold
"O=c1[nH]c(=O)n([C@@H]2O[C@H](COP(=O)(O)CP(=O)(O)O)[C@@H](O)[C@H]2O)cc1F [4l, 5-Fluorouridine-5′-O-[(phosphonomethyl)phosphonic acid]]",fold more potent at human CD73 as compared to the rat enzyme,[3],2 to 3 fold
